Test [1] deals with T1, TAK1 (Homo sapiens, UniProt O43318).
T1 sequence (O43318 1-606): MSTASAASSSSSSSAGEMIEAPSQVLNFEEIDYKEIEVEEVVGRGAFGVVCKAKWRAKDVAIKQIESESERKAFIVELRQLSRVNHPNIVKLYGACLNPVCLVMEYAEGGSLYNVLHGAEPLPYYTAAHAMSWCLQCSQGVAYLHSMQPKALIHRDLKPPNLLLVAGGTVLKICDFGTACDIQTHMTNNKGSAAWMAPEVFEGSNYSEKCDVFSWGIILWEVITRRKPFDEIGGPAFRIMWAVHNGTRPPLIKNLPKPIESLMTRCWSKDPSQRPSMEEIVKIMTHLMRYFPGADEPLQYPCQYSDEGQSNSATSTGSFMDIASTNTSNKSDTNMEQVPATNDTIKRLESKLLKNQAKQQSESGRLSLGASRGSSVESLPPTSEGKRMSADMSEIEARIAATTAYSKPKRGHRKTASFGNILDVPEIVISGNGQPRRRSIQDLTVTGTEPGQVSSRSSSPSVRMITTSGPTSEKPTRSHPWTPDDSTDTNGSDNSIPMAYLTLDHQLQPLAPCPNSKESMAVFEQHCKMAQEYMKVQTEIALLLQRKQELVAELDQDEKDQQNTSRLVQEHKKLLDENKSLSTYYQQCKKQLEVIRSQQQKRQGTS
Nature of the test: KINOMEscan binding to TAK1. The note with it: for binding to TAK1 in KINOMEscan: concentration of 1 μM.

Test [2] concerns the target T2, TAK1 (Homo sapiens, UniProt O43318).
T2 sequence (O43318 with tags, fused parts or gaps): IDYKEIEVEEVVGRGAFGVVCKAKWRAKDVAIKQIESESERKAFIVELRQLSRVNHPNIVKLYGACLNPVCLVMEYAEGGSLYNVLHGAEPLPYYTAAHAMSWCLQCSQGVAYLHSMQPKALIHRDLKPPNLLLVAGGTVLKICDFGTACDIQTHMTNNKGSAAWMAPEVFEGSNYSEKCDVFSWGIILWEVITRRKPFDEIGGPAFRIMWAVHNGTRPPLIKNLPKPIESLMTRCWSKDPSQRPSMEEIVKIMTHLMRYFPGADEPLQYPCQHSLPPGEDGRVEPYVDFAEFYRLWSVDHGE
Nature of the test: Mass spectrometry analysis of purified TAK1 incubated with compound. It is filed as binding. Particulars: Fig S3.

Test [3] concerns the target ERK2 (Homo sapiens, UniProt P28482). The test can be described thus: Z'-Lyte activity assay, ERK2. It is filed as biochemical. Particulars: compound incubation time of 60 min.
In test [4] the target is T3, TAK1 (Homo sapiens, UniProt O43318).
T3 sequence (O43318 1-303 limits assumed): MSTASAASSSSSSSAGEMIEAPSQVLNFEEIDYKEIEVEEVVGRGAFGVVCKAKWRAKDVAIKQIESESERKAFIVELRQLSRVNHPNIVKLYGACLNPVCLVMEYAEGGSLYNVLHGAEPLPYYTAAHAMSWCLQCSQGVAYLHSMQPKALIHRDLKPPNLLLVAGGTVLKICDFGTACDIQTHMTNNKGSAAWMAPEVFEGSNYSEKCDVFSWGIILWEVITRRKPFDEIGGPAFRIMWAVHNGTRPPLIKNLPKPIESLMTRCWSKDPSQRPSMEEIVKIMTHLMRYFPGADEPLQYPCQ
Nature of the test: Time-dependent experiments, Kinact/Ki determination. It is filed as binding.

The test system of test [5] is panel of 468 kinases and mutants. The test can be described thus: KINOMEscan in vitro ATP-site competition binding assay, kinome selectivity. Set-up: species or system human. Particulars: KINOMEscan at 1 μM; for selectivity score S(1): 468 kinases and mutants, kinases with scores less than 1.

Sequence of ERK2 (P28482 2-360): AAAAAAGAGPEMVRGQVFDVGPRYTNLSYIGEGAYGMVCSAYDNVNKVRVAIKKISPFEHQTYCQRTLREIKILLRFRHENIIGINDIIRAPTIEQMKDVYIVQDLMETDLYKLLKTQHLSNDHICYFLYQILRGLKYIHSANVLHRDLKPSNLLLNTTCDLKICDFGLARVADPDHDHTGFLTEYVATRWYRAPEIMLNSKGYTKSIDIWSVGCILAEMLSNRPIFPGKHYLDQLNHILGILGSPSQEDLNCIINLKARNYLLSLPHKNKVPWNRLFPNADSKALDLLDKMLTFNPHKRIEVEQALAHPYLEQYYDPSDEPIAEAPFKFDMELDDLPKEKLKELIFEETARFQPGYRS

For `COc1cc(O)c2c(c1)/C=C/C[C@H](O)[C@H](O)C(=O)/C=C\C[C@H](C)OC2=O` [5Z7, 5Z-7-oxozeaenol, reference compound], the “inhibition score against TAK1 in KINOMEscan” value in test [1] (10 μM) was “moderate inhibition score”. The “binding to TAK1 in KINOMEscan” value in test [1] is “did not display strong binding”.
Consider `C=CC(=O)Nc1ccccc1Oc1nc(Nc2ccc(N3CCN(C)CC3)cc2)ncc1Cl` [compound 2, N-(2-((5-chloro-2-((4-(4-methylpiperazin-1-yl)phenyl)amino)pyrimidin-4-yl)oxy)phenyl)acrylamide], for which, in test [2], the “labeling of TAK1 residue” value is “exclusive labeling of Cys174”.
As a reminder, the kinact/KI is the maximal inactivation rate divided by the concentration that gives half of it. In the case of `C=CC(=O)Nc1ccccc1Nc1nc(Nc2ccc(N3CCN(C)CC3)cc2)ncc1Cl` [compound 5, N-(2-((5-chloro-2-((4-(4-methylpiperazin-1-yl)phenyl)amino)pyrimidin-4-yl)amino)phenyl)acrylamide], the “Enzymatic IC50s ERK2” value in test [3] is given as “weak activity”. Further, the kinact/KI in test [4] was found to be 6870 M⁻¹ s⁻¹. Further, in test [5], the “binding to kinases with a cysteine at the DFG-1 position” value was “binds to TAK1 and ten other kinases with a cysteine at the DFG-1 position”; the “selectivity score S(1)” value was 0.10.
For `C=CC(=O)Oc1ccccc1Nc1nc(Nc2ccc(N3CCN(C)CC3)cc2)ncc1Cl` [compound 7, 2-((5-chloro-2-((4-(4-methylpiperazin-1-yl)phenyl)amino)pyrimidin-4-yl)amino)phenyl acrylate], the “selectivity score S(1)” value in test [5] is given as 0.19.
Regarding `CCC(=O)Nc1ccccc1Nc1nc(Nc2ccc(N3CCN(C)CC3)cc2)ncc1Cl` [compound 9], in test [5], the “binding to kinases with a cysteine at the DFG-1 position” value is “hits no kinases with a cysteine at the DFG-1 position” and the “selectivity score S(1)” value was found to be 0.10.
`C=CC(=O)Nc1ccccc1Oc1nc(Nc2cnn(C(F)F)c2)ncc1Cl` [compound 23]: the “binding to TAK1 in KINOMEscan” value in test [1] is on record as “TAK1 was not ranked among the strongest hits”. The “selectivity score S(5)” value in test [5] worked out at 0.1.
As for `C=CC(=O)Nc1ccccc1Oc1nc(Nc2cnn(CCOC)c2)ncc1Cl` [compound 25], the “binding to TAK1 in KINOMEscan” value in test [1] is “TAK1 was not ranked among the strongest hits”. Besides, the “selectivity score S(5)” value in test [5] was 0.03.
